Data on eight compounds can be found in patent US20250197424A1, “QUINOLINE COMPOUND AND USE THEREOF” (SHANGHAI PHARMACEUTICALS HOLDING CO., LTD., priority 2022, published 2025).

Counter-ions that a name gives are not always drawn. Like-named read-outs stand apart in the source and are kept apart here.

The target of one data set is GTP-KRAS-G12D:SOS1 (Homo sapiens (Human), UniProt P01116, G12D). Briefly: GTP-KRAS-G12D:SOS1 binding inhibition. The protocol: (§1) The IC50 of the compounds was fitted using a nonlinear regression equation with GraphPad Prism 8. The results are presented in Table 2: • Negative control: DMSO • Positive control: 100 μM BI-2852
(§2) The following nonlinear fitting formula was used to obtain the IC50 (half-maximal inhibitory concentration) of the compounds:
(§3) [formula] • X: logarithm of the compound concentration • Y: 665/615 Ratio

The next data set concerns the target GTP-KRAS-G12D:CRAF (Homo sapiens (Human), UniProt P01116, G12D). Nature of the data set: GTP-KRAS-G12D:CRAF binding inhibition. On the procedure:
The IC50 of the compounds was fitted using a nonlinear regression equation with GraphPad Prism 8. The results are presented in Table 2: • Negative control: DMSO • Positive control: 100 μM BI-2852 The following nonlinear fitting formula was used to obtain the IC50 (half-maximal inhibitory concentration) of the compounds: [formula] • X: logarithm of the compound concentration • Y: 665/615 Ratio

The target in a further data set is GTP-KRAS-WT:SOS1 (Homo sapiens (Human), UniProt P01116). Briefly: KRAS_WT and SOS1 binding inhibition (KRAS-WT/SOS1 binding kit, 665/615 ratio). Conditions: GTP 10 μM.
Text: To detect the inhibitory capability of small molecule compounds on the binding activity between KRAS_WT and SOS1 using a drug screening system based on the binding of KRAS_WT and SOS1 interaction.
a) BI-2852 was used as a positive control, with its stock solution as the first dilution point, followed by a 3-fold dilution, making a total of 10+0 dilutions. Similarly, the first dilution point of the test compounds was also their respective stock solutions, followed by a 3-fold dilution, making a total of 11+0 dilutions. Using Echo, 0.2 μL of the gradient-diluted compound solutions were transferred into a 384-well plate, with each compound tested in duplicate. The final DMSO concentration was 1%. The plate was centrifuged at 1000 rpm for 1 minute. The final concentrations of the positive controls were 100, 33.33, 11.11, 3.70, 1.23, 0.412, 0.137, 0.046, 0.015, 0.005, and 0 μM. The final concentrations of the test compounds were […], 0.01, and 0 μM.
b) KRAS_WT from the kit was prepared with GTP at a final concentration of 10 μM in the dilution buffer, and 5 μL was transferred into the 384-well reaction plate. The plate was centrifuged at 1000 rpm for 1 minute.
c) Subsequently, 5 μL of the SOS1 mixture was transferred into the 384-well reaction plate. The plate was centrifuged at 1000 rpm for 1 minute and incubated at 25° C. for 15 minutes.
d) 10 μL of the detection mixture was transferred into the 384-well reaction plate. The plate was centrifuged at 1000 rpm for 1 minute and incubated overnight at 4° C.
e) The […] and emission wavelength at 615 nm were read using an Envision multimode plate reader. The 665/615 ratio signal intensity was used to characterize the enzyme activity.
as §1, §2, §3

For data set [1], the system named is Panc-1 (KRASG12D pancreatic cancer cell) CDX model. It counts as in vivo, Nu/Nu nude mice. The protocol: Female Nu/Nu nude mice, approximately 8 to 10 weeks old, (Beijing Vital River Laboratory Animal Technology Co., Ltd) were used in these studies. The animals were maintained in individually ventilated cages with a 12-hour light/dark cycle. Food and water were available ad libitum. Panc-1 tumor cells were maintained in vitro at 37° C. in an atmosphere containing 5% CO2 using DMED medium supplemented with 10% fetal bovine serum. Prior to tumor inoculation, cells in the exponential growth phase were harvested and quantified using a cell counter. Panc-1 tumor cells (1×10^7) in 0.2 mL PBS were subcutaneously inoculated into the right flank of each mouse. Randomization was initiated when the average tumor size reached approximately 154.21 mm^3. A total of 9 tumor-bearing mice were enrolled in the study, and these mice were allocated into […] (3 mice per group). Additionally, 3 non-tumor-bearing mice were assigned to the untreated group.
The animals were treated […] via intravenous injection (I.V.) with either a vehicle (10% HP-β-CD) or the vehicle containing the indicated dose of the compound, for approximately 28 days (QD×28 I.V.), or until ethical endpoints were reached (BWL>20%; median tumor volume (MTV)>2000 mm^3; individual TV>3000 mm^3; clinical signs of discomfort). […]
Tumor volume was measured in two dimensions using calipers twice weekly after randomization, and the volume was calculated in mm^3 using the formula: V=(L×W×W)×0.5, where V is the tumor volume, L is the tumor length (the longest tumor dimension), and W is the tumor width (the longest tumor dimension perpendicular to L). […] Tumor growth inhibition (TGI %) was calculated using the formula: TGI %=[1−(Ti/Ci)]×100, where Ti is the median tumor volume in the treatment group on the measurement day, and Ci is the median tumor volume in the control group on the measurement day.

`CCc1cccc2cc(O)cc(-c3c(F)c4c5c(nc(OC[C@@]67CCCN6C[C@H](F)C7)nc5c3F)N3CC5CCC(N5)C3CO4)c12` (single isomer, unassigned) [Compound 5a, (S or R)-4-((5aS,6S,9R)-1,3-Difluoro-13-(((2R,7aS)-2-fluorotetrahydro-1H-pyrrolizin-7a(5H)-yl)methoxy)-5a,6,7,8,9,10-hexahydro-5H-6,9-epiminoazepino[2′,1′:3,4][1,4]oxazepino[5,6,7-de]quinazolin-2-yl)-5-ethylnaphthalen-2-ol dihydrochloride]: the IC50 at GTP-KRAS-G12D:SOS1 was found to be 14.5 nM; on GTP-KRAS-G12D:CRAF, 5.81 nM; at GTP-KRAS-WT:SOS1, 11.4 nM. Further, in data set [1] (Panc-1 KRASG12D in Nu/Nu, 10 mg/kg QD IV, Day 28), the “TGI (%) Day 28” value was 96%. In addition, the “BWL (%) Day 14” value in data set [1] (mouse, in vivo, iv, 10 mg/kg) is reported as −0.77%. Further, the “BWL (%) Day 28” value in data set [1] (mouse, in vivo, iv, 10 mg/kg) was −1.58%.
As for `CC1CC2(CCc3c(nc(OC[C@@]45CCCN4C[C@H](F)C5)nc3N3C[C@H]4CC[C@@H](C3)N4)C2)c2cc(O)cc(Cl)c21` (single isomer, unassigned) [Compound 7aa, (1R or 1S, 3R or 3S)-4′-((1R,5S)-3,8-diazabicyclo[3.2.1]octan-3-yl)-4-chloro-2′-(((2R,7aS)-2-fluorotetrahydro-1H-pyrrolizin-7a(5H)-yl)methoxy)-3-methyl-2,3,5′,8′-tetrahydro-6′H-spiro[indene-1,7′-quinazolin]-6-ol dihydrochloride], the IC50 on GTP-KRAS-G12D:SOS1 (dihydrochloride) was determined as 9.95 nM; at GTP-KRAS-G12D:CRAF (dihydrochloride) it was 16.4 nM; on GTP-KRAS-WT:SOS1 (dihydrochloride), 233 nM.
On the same counts, the results for `CC1CC2(CCc3c(nc(OC[C@@]45CCCN4C[C@H](F)C5)nc3N3C[C@H]4CC[C@@H](C3)N4)C2)c2cc(O)cc(Cl)c21` (single isomer, unassigned) [Compound 7ab, (1R or 1S, 3S or 3R)-4′-((1R,5S)-3,8-diazabicyclo[3.2.1]octan-3-yl)-4-chloro-2′-(((2R,7aS)-2-fluorotetrahydro-1H-pyrrolizin-7a(5H)-yl)methoxy)-3-methyl-2,3,5′,8′-tetrahydro-6′H-spiro[indene-1,7′-quinazolin]-6-ol dihydrochloride] are 17.4 nM, 84.8 nM and 582 nM.
Take `Oc1cc(Cl)c2c(c1)C1(CC2)CCc2c(nc(OC[C@@]34CCCN3C[C@H](F)C4)nc2N2CC3CCC(C2)N3)C1F` (single isomer, unassigned) [Compound 8a, (1S or 1R,8'S or 8′R)-4′-((1R,5S)-3,8-Diazabicyclo[3.2.1]octan-3-yl)-4-chloro-8′-fluoro-2′-(((2R,7aS)-2-fluorotetrahydro-1H-pyrrolizin-7a(5H)-yl)methoxy)-2,3,5′,8′-tetrahydro-6′H-spiro[indene-1,7′-quinazolin]-6-ol dihydrochloride]: the half-inhibitory concentration (IC50) came out at 13.5 nM at GTP-KRAS-G12D:SOS1, 19.5 nM at GTP-KRAS-G12D:CRAF and 61.2 nM at GTP-KRAS-WT:SOS1.
For the compound `Oc1cc(Cl)c2c(c1)C1(CC2)CCc2c(nc(OC[C@@]34CCCN3C[C@H](F)C4)nc2N2CC3CCC(C2)N3)C1F` (single isomer, unassigned) [Compound 8d, (1R or 1S, 8'S or 8′R)-4′-((1R,5S)-3,8-diazabicyclo[3.2.1]octan-3-yl)-4-chloro-8′-fluoro-2′-(((2R,7aS)-2-fluorotetrahydro-1H-pyrrolizin-7a(5H)-yl)methoxy)-2,3,5′,8′-tetrahydro-6′H-spiro[indene-1,7′-quinazolin]-6-ol dihydrochloride], the IC50 at GTP-KRAS-G12D:SOS1 is 115 nM; at GTP-KRAS-G12D:CRAF it was 491 nM; on GTP-KRAS-WT:SOS1 it was 4750 nM.
Turning to `Oc1cc(Cl)c2c(c1)C1(CC2)CCc2c(N3CC4CCC(C3)N4)nc(OC[C@@]34CCCN3C[C@H](F)C4)nc2C1(F)F` (single isomer, unassigned) [Compound 9a, (S or R)-4′-((1R,5S)-3,8-Diazabicyclo[3.2.1]octan-3-yl)-4-chloro-8′,8′-difluoro-2′-(((2R,7aS)-2-fluorotetrahydro-1H-pyrrolizin-7a(5H)-yl)methoxy)-2,3,5′,8′-tetrahydro-6′H-spiro[indene-1,7′-quinazolin]-6-ol dihydrochloride], the IC50 at GTP-KRAS-G12D:SOS1 stood at 15.2 nM; on GTP-KRAS-G12D:CRAF, 46.8 nM; on GTP-KRAS-WT:SOS1 it was 559 nM.
Taken in the same sequence, the figures for `Oc1cc(-c2cc3c4c(nc(OC[C@@]56CCCN5C[C@H](F)C6)nc4c2F)N2C[C@@H]4CC[C@@H](N4)[C@H]2CO3)c2ccccc2c1` [Compound 3, dihydrochloride] were 11.9 nM, 12.3 nM and 79.6 nM.
Taken in the same sequence, the figures for “(R or S)-4-((5aS,6R,9S)-1,3-difluoro-13-((2R,7aS)-2-fluorotetrahydro-1H-pyrrolizin-7a(5H)-ylmethoxy)-5a,6,7,8,9,10-hexahydro-5H-6,9-epiminoazepino[2′,1′:3,4][1,4]oxazepino[5,6,7-de]quinazolin-2-yl)-5-ethynyl-6-fluoronaphthalen-2-ol [4b′]” were 18.3 nM, 8.22 nM and 5.6 nM.

The term IC50 denotes the concentration at which inhibition is half-maximal.
